These results are taken from patent US20120183580A1, “Analgesic Composition for Transbuccal Administration” (priority 2011, published 2012).

For series [1], the system named is Swiss albino mice. How it is done: Swiss albino mice (˜20-30 g) were first trained on the rotarod, which accelerated from 0-20 rpm over 5 min, prior to the experiment. Only mice that were capable of staying on the rotarod for the entire 5 min period were used in this experiment. Mice were either administered with the peptide (1 or 10 mg/kg, sublingual), or morphine (20 mg/kg, subcutaneous). After drug administration, the animals are placed on the rotarod and the time taken for the mice to slip was recorded (up to 5 min), and subsequently at 1 h, 2 h and 3 h post peptide, and at 30 min, 1 h 30 min and 2 h 30 min post morphine. Statistical comparison was done by either Student's t-test or one-way ANOVA.

In series [2] the test system is Swiss albino mice. Particulars: mouse, in vivo.
Method: Swiss albino mice (30-35 g) were injected with saline, the peptide (5 mg/kg, 50 mg/kg intraperitoneal) or morphine (0.5 mg/kg, 5 mg/kg, 50 mg/kg intraperitoneal). The experimenters are blind to the identity of the solutions. All mice were administered 5 mg charcoal (0.1 ml of 50 mg/ml charcoal solution) via oral gavage immediately after drug administration. At 30 min post-drug/charcoal administration, the mice were sacrificed by cervical dislocation and the GI tract was exposed and the location of the charcoal identified. The distance the charcoal traveled in the intestine from the stomach was measured and expressed as % of total length of the GI tract.
Series [3] deals with Swiss albino mice. The method, then:
Swiss albino mice (˜30-40 g) were first placed into their respective chambers with a 20 min pre-treatment recording. Only mice showing at least 50 counts/5 min are used in the experiments. Mice were administered saline (control), peptide (5 or 50 mg/kg) or morphine (50 mg/kg). Experimenters were blind to the identity of the drug solutions. […] Statistical comparison was done by 2-way ANOVA.
This is another data set of the same source.

For series [4] the following is noted: cited from earlier work; for bioavailability by the sublingual route: oxytocin in physiological saline solution.
The nature of series [5]: pharmacokinetics: plasma concentration by LC/MS/MS after sublingual, intravenous, oral, intraperitoneal administration. The format is in vivo, mice. As to conditions: mouse. How it is done:
The peptide (1, 5, 15 and 25 mg/kg, 0.5 ml/kg) was administered sublingually to mice. Upon reaching specified time points of 1, 5, 15, 30, 60 and 120 min post-dose, each mouse was sacrificed and blood samples were collected via cardiac puncture. Plasma samples were then extracted and analyzed under LC/MS/MS.
Systemic exposure of the peptide was also studied through intravenous, oral (gavage) and intraperitoneal routes.

For series [6], the system named is Swiss albino mice. In words: toxicity, multiple dose regimen. The format is in vivo. As to conditions: 8 or 80 mg/kg intraperitoneal daily, 14 days. How it is done:
(§1) Swiss albino mice were administered with the peptide at 8 mg/kg or 80 mg/kg (intraperitoneal) once daily for 14 days. Control mice received saline. At the end of the period, all mice were killed, dissected and observed for any obvious abnormality. Weights of the major organs, including brain, heart, lung, liver, spleen and kidney, were recorded.

In the next series the test system is Sprague-Dawley rats. The series is described as follows: acute effect on blood pressure in anesthetized rats. The format is in vivo. Particulars: for effect on blood pressure: 5 and 20 mg/kg. How it is done:
Sprague-Dawley rats (˜300 g) were anesthetized and the carotid artery was cannulated for blood pressure measurement. Drugs were administered by the pre-determined route. A pulse transducer was secured across the thoracic region of the rat to allow measurement of respiration rate. Blood pressure was recorded for at least 15 min or until a relatively stable blood pressure was observed.

For series [7], the system named is rats. Particulars: 1 or 50 mg/kg intraperitoneal, vs saline control.
From the text: The open field was divided into 16 equal size squares (25×25 cm). The 4 squares at the centre are assigned a low anxiety score (0) while those at the 4 corners are assigned a high anxiety score (2). The remaining 8 squares are assigned a medium score (1). A rat entering each square will be given the score assigned to that square. The sum total obtained within the 5-min test period divided by the number of squares entered is the anxiety score for that rat. Diazepam was used as positive control. Statistical comparison was done by Student's t-test.
A short description of a further series: acute high dose toxicity. The format is in vivo, mice. Particulars: mouse, in vivo; intravenous, mice. How it is done: (§2) Acute toxicity was determined by both oral and intravenous administration of the peptide. Three mice were given a dose of peptide at 2 g/kg orally by gavage, 5 ml/kg.
Another series has as its system mice. In words: acute high dose toxicity. The format is in vivo. The method, then: as §2
The test system of another series is C57 mice. The format is in vivo. Particulars: 8 or 80 mg/kg intraperitoneal once daily for 14 days. How it is done: as §1
The multiple dose toxicity testing was repeated exactly as described above except that C57 mice were used instead of Swiss albino mice. Similar results were obtained in terms of body weights, vital organ weights and behavior of control and treated animals (data not shown).

In series [8] the test system is Swiss albino mice. The series is described as follows: toxicity, single dose regimen. The format is in vivo. Particulars: single dose 8 or 80 mg/kg intraperitoneal, day 14. The method, then:
Swiss albino mice were administered with the peptide at 8 mg/kg or 80 mg/kg (intraperitoneal) on day 1 and then observed for 14 days. Control mice received saline. At the end of the period, all mice were sacrificed, dissected and observed for any obvious abnormality. Weights of the major organs, including brain, heart, lung, liver, spleen and kidney, were recorded.

Series [9] deals with rats. The series is described as follows: elevated-plus maze test. As to conditions: rat, in vivo. The text has this: Two opposite arms of the elevated-plus maze are enclosed by high walls (closed arms) while the other two are not (open arms). The test animals (rats) naturally prefer and spend more time in the closed aims.

Like-named read-outs stand apart in the source and are kept apart here. Where a SMILES comes first, the peptide text is derived from it.

On to `CN1CC[C@]23c4c5ccc(O)c4O[C@H]2[C@@H](O)C=C[C@H]3[C@H]1C5` [morphine, reference compound], for which the “motor-coordination (time on rotarod)” value in the series with Swiss albino mice [1] (mouse, in vivo) is reported as “No statistical significant effects”. Also, the “GI motility (distance traveled by charcoal)” value in the series on Swiss albino mice [2] is “dose-dependently decreased GI motility”. Moreover, the “locomotor activity vs control” value in the series on Swiss albino mice [3] (mouse, in vivo) is listed as “significant increase in locomotive activities”.

On to `NC(=O)CC[C@@H]1NC(=O)[C@H](Cc2ccccc2)NC(=O)[C@H](Cc2ccc(O)cc2)NC(=O)CCSSC[C@@H](C(=O)N2CCC[C@H]2C(=O)N[C@H](CCCN=C(N)N)C(=O)NCC(N)=O)NC(=O)[C@H](CC(N)=O)NC1=O` [desmopressin], for which the “bioavailability by the sublingual route” value in series [4] is listed as “about 0.25%”.

For orientation: bioavailability means dose-corrected exposure relative to a reference, in per cent. The LD50 is the dose expected to kill half of the subjects tested. The compound `C[C@@H](O)[C@H](NC(=O)[C@@H]1CCCN1C(=O)[C@H](Cc1ccccc1)NC(=O)[C@@H]1CCCN1C(=O)[C@@H](N)CC(N)=O)C(=O)N[C@@H](Cc1c[nH]c2ccccc12)C(=O)N[C@@H](CCCNC(=N)N)C(=O)N[C@@H](CCCCN)C(=O)N[C@@H](CCCNC(=N)N)C(=O)N1CCC[C@H]1C(=O)NCC(=O)O` [the peptide, NPFPTWRKRPG] (H-NPFPTWRKRPG-OH; N-terminus and C-terminus assumed) showed a bioavailability in series [5] (25 mg/kg, sublingual route, AUC compared to intravenous route) of 44%. The Tmax in series [5] (after sublingual administration, read-out: time of highest level in the plasma (converted)) was 5 min. Moreover, the organ appearance result with Swiss albino mice [6] and with Swiss albino mice [8] was “All organs appeared normal” each time. Besides, the “effect on blood pressure” value is “decreased in blood pressure” in the series with Sprague-Dawley rats (intravenous route) and “did not cause any changes in blood pressure” in the series with Sprague-Dawley rats (sublingual or intraperitoneal routes). Moreover, the “heart rate and respiration rate” value in the series with Sprague-Dawley rats (all experiments (5 and 20 mg/kg, all routes)) is listed as “No significant changes”. Further, in the series on Swiss albino mice [1] (1 or 10 mg/kg sublingual, up to 3 h post-dose), the “motor-coordination (time on rotarod)” value is reported as “No statistical significant effects”. In addition, the anxiety score entry in the series with rats [7] is given as “did not show any effect”. For the same compound, the “locomotor activity vs control” value with Swiss albino mice [3] (5 or 50 mg/kg, within 4 h of drug administration) is “no significant difference”. The LD50 at 2 weeks in “acute high dose toxicity” is around 125 mg/kg. For the same compound, the values for the clinical observation entry in the series with mice (62.5 mg/kg intravenous) and in the series on mice (2 g/kg oral by gavage) were “appeared sedated” and “appeared sedated with much decreased activity”, respectively. Further, the “clinical observation, surviving mice” value in the series with mice (125 mg/kg intravenous) was “appeared heavily sedated for several hours”. Besides, in the series on C57 mice, the death entry was “No death occurred”.

For `CN1C(=O)CN=C(c2ccccc2)c2cc(Cl)ccc21` [diazepam], the “time spent in the open or closed arms” value in the series with rats [9] is “reversed the times spent in open and closed arms”.

For `CC[C@H](C)[C@@H]1NC(=O)[C@H](Cc2ccc(O)cc2)NC(=O)[C@@H](N)CSSC[C@@H](C(=O)N2CCC[C@H]2C(=O)N[C@@H](CC(C)C)C(=O)NCC(N)=O)NC(=O)[C@H](CC(N)=O)NC(=O)[C@H](CCC(N)=O)NC1=O` [oxytocin], the bioavailability in series [4] (formulation including 0.75% w/w sodium taurocholate (tablet form)) is given as 27%. Also, in [4], the “bioavailability by the sublingual route” value is reported as 0.007-0.07%.
